Earlier results on one compound are cited in paper PMC9014651 (Bioorganic Chemistry, 2022).

In this series the test system is coronavirus variants (B.1.1.7 and B.1.351). The conditions noted are these: cited from earlier work.

For the compound `Cc1ccc(NC(=O)c2ccc(CN3CCN(C)CC3)cc2)cc1Nc1nc(-c2cccnc2)cs1` [Masitinib], the “Effect on tested coronavirus variants in vitro” value is “effective”.
